Values quoted from earlier work in patent US9072783B2, “Highly dispersible powders, compositions and methods for preparation” (Aridis Pharmaceuticals, priority 2009, dated 2015).

Settings: of the amino acid itself (Table 3)

Hydropathy Index | SMILES
−3.5 | N[C@@H](CC(=O)O)C(=O)O [Aspartic Acid, aspartic acid]
−1.3 | N[C@@H](Cc1ccc(O)cc1)C(=O)O [Tyrosine, tyrosine]
